Assay results as given in patent US20200316087A1, “NOVEL COMBINATION THERAPY FOR ANXIETY DISORDERS, EPILEPSY, AND PAIN” (priority 2017, published 2020).
Entries after “also recorded” stand apart in the source; their conditions may differ.

Tests used:
Format in all cases: in vivo
motor performance = assay: Observed motor effects / overt toxicity 4 hr after oral dosing; conditions: for Observation (motor effects) / Number with observed motor effects: 4 hr post dosing, mice
Text: (§1) This seizure model is utilized to screen for drugs that might […] by other screening approaches. For example, the highly used anticonvulsant leviteracetam was effective in this test but not in the pentylenetetrazole assay. Adult, male mice were subjected to 6 Hz stimulation at 44 mA as originally described by Barton et al. (Epilepsy Res. 2001; 47:217-27) and conducted per protocol of the NTH Anticonvulsant Screening Program (available online from the National Institute of Neurological Disorders and Stroke—6 Hz 44 mA Psychomotor Seizure Model, Mouse). Briefly, a mouse was dosed with KRM-II-81, p.o., and 2 hr later given 6 Hz stimulation for 3 sec delivered through corneal electrodes at 44 mA and observed for the presence or absence of seizure activity. A separate group of mice was dosed with higher doses of KRM-II-81 and observed for potential deficits in motor performance and overt signs of toxicity at 4 hr post dosing.

6 Hz-induced seizures = assay: 6 Hz (44 mA) seizure model; conditions: mice; for Number protected/number tested: 2 hr post dosing
Text: as §1

[1] = tested on: immobility in tail-suspension test; assay: Tail-suspension assay; conditions: C57Bl/6 mice
Experimental: Male, C57Bl/6 mice (Envigo, Indianapolis, Ind.) were employed in these experiments. Med Associates Inc. (Fairfax, Vt., USA), apparatus SOF-821 was utilized. The TST was an automated version of published methods in which the tail was secured to a lever on the ceiling of the chamber. The duration of immobility was recorded by a force transducer for a period of 10 min.
Imipramine was dissolved in water.

[2] = tested on: punished licking (anxiety); assay: Vogel conflict test; conditions: rats
Experimental: Experiments are conducted as described in the protocol of Alt et al. (Neuropharmacology 2007, 52, 1482-1487). Experimentally-naive adult male Sprague-Dawley rats (Harlan Industries, Indianapolis, Ind.), weighing between 200 and 300 g, are used as subjects. The rats are housed in Plexiglas cages (4 per cage) and given free access to Lab Diet #5001 for rodents (PMI Nutrition International Inc., St. Louis, Mo.). Water is withheld for 20-24 hours prior to the first training session. A 12-hr light/dark cycle is maintained, and all experimental sessions are conducted during the light phase of the cycle at about the same time each day.
The experiments are conducted using operant behavior test chambers ENV-007 (Med Associates Inc., Georgia, Vt., USA), 30.5×24.1×29.2 cm. […] All events are controlled and licking data is recorded by a Compaq computer running MED-PC Version IV (Med Associates Inc., Georgia, Vt., USA).
Rats are put into the chamber on day 1 and 2 with white noise and the houselight illuminated, and allowed to drink for a total of six minutes after the first lick is made. The six minutes is broken into two components, the first three minutes is recorded as the unpunished component and the second three minutes are recorded as the punished component. […]
The mean number of licks for both the unpunished and punished components are analyzed. […]

Row | Compound | loss of righting (mice affected) (motor performance; 150 mg/kg p.o.) | loss of righting (mice affected) (motor performance; 200 mg/kg p.o.) | more severe tremor (mice affected) (motor performance; 200 mg/kg p.o.) | Observation (motor effects) (motor performance; dose 100 mg/kg, p.o.) | Number with observed motor effects (motor performance; dose 50, p.o.) | Number with observed motor effects (motor performance; dose 100, p.o.) | Number with observed motor effects (motor performance; dose 150, p.o.) | Observation (motor effects) (motor performance; dose 150, p.o.) | Number with observed motor effects (motor performance; dose 200, p.o.) | Observation (motor effects) (motor performance; dose 200, p.o.) | Number protected/number tested (6 Hz-induced seizures; dose 10, p.o.) | Number protected/number tested (6 Hz-induced seizures; dose 25, p.o.) | Number protected/number tested (6 Hz-induced seizures; dose 50, p.o.) | 6 Hz Potency (MED) (6 Hz-induced seizures; p.o., doses 10-50 mg/kg) [mg/kg] | immobility in tail-suspension test ([1]; i.p., 100 mg/kg significantly greater than vehicle, 100 mg/kg) | sedation-like effects ([1]; higher doses tested) | anxiolytic-like efficacy in Vogel conflict test [2]
1 | C#Cc1ccc2c(c1)C(c1ccccn1)=NCc1c(-c3cnco3)ncn1-2 [KRM-II-81, 5-(8-ethynyl-6-(pyridin-2-yl)-4H-benzo[f]imidazo[1,5-a][1,4]diazepin-3-yl)oxazole] | 1/8 | 1/8 | 1/8 | Mild tremor; also recorded: tremors | 0/8 | 3/8 | 5/8 | tremor, unable to grasp | 8/8 | more severe tremor'; also recorded: loss of righting | 0/8 | 3/8 | 7/8 | 50 | slight increase in immobility at the higher doses tested; also recorded: not active | moderate sedation-like effects | 
2 | C#Cc1ccc2c(c1)C(c1ccccc1)=NCc1c(-c3cnco3)ncn1-2 [KRM-II-82, 5-(8-ethynyl-6-phenyl-4H-benzo[f]imidazo[1,5-a][1,4]diazepin-3-yl)oxazole] |  |  |  |  |  |  |  |  |  |  |  |  |  |  |  |  | did not produce anxiolytic-like efficacy
